Key:
[1] = system: platelet activation marker CD62P (P-selectin) on platelets; experiment: Flow cytometric analysis of CD62P expression in diluted blood stimulated with a platelet stimulant and then fixed; format: cell-based, human; conditions: then fixed; for percentage of gated cells in P3 (% parent), CD62P: gate P3 set at 1% with IgG control, CD61-positive platelets; for median fluorescence of CD62P (P1 AND P2): whole population of CD61 positive cells, IgG control 2
Description: The inventors then set out to test the efficacy of the platelet stabilising composition by determining the expression levels of the platelet activation marker, CD62P (ie P-selectin), using flow cytometry.
Initially, an experiment was carried out in order to measure the level of expression of the platelet activation marker, CD62P, by flow cytometry in an IgG control sample. […] Platelets were gated in both P1 (top, centre in FIG. 1) and P2 (top, right in FIG. 1) in plots of a platelet identifier antibody, CD61-PerCP, against both side scatter (SSC) and forward scatter (FSC).
Approximately 3,000 CD61-positive platelet events were recorded. The CD61-positive cells were then drawn on a dot plot of CD62P against SSC (centre of FIG. 1). A frequency histogram of CD62P fluorescence against cell count was then used to quantify the percentage of cells from the parent population that were present in an interval gate P3 (bottom, left of FIG. 1). […] The gate was set at 1% using the appropriate IgG control sample and recorded in the statistics box (bottom right of FIG. 1). The median fluorescence of CD62P was also recorded for the whole population of CD61 positive cells (P1 AND P2).
Flow cytometric analysis was carried out to determine CD62P expression in an unstimulated sample of blood diluted with saline alone and then fixed.
Flow cytometric analysis was carried out to determine CD62P expression in a diluted sample of blood stimulated with adenosine diphosphate (ADP) and then fixed.
Flow cytometric analysis was carried out to determine CD62P expression in a diluted sample of blood stimulated with the thromboxane mimetic U46619 and then fixed.
Flow cytometric analysis was carried out to determine CD62P expression in a diluted sample of blood stimulated with thrombin receptor activating peptide (TRAP) and then fixed.

[2] = system: platelet activation marker CD62P; conditions: both groups where aspirin was added (healthy volunteers, patients on aspirin)
Description: Blood samples were obtained from (a) a group of healthy volunteers who were not being treated with aspirin, and (b) a group of patients who were on aspirin therapy. A CD62P stimulant combination of arachidonic acid and epinephrine, or arachidonic acid and epinephrine, in the presence of aspirin (as a control), were added to each blood sample for 4 minutes, followed by the stabilisation composition of the invention.

| Compound | percentage of gated cells in P3 (% parent), CD62P [1] | median fluorescence of CD62P (P1 AND P2) [1] | inhibition of CD62P expression [2] |
| --- | --- | --- | --- |
| Nc1ncnc2c1ncn2[C@@H]1O[C@H](COP(=O)(O)OP(=O)(O)O)[C@@H](O)[C@H]1O [ADP, adenosine diphosphate] | 70.8% | 365 |  |
| CCCCC[C@H](O)/C=C/[C@@H]1[C@@H](C/C=C\CCCC(=O)O)[C@H]2CO[C@@H]1C2 [U46619] | 95.3% | 1191 |  |
| CC(=O)Oc1ccccc1C(=O)O [aspirin] |  |  | completely inhibited |
| thrombin receptor activating peptide [TRAP] | 97.5% | 1646 |  |

Reference: patent US20100105021A1, “STABILISATION OF BIOLOGICAL CELL MARKERS” (THE UNIVERSITY OF NOTTINGHAM, priority 2007, published 2010)
